According to PubChem BioAssay (NCI):
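GI50: concentration for 50% inhibition of growth. TGI marks complete inhibition of growth.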

Tests used:
Experiment in all cases: DTP human tumour cell line panel, 384-well format
[1] = test system: DU-145 prostate
[2] = test system: HCT-116 colon
[3] = test system: OVCAR-3 ovarian
[4] = test system: UO-31 renal
[5] = test system: SNB-19 CNS
[6] = test system: MALME-3M melanoma
[7] = test system: ACHN renal
[8] = test system: KM12 colon
[9] = test system: HS 578T breast
[10] = test system: OVCAR-5 ovarian
[11] = test system: CAKI-1 renal
[12] = test system: SF-539 CNS
[13] = test system: NCI-H226 lung
[14] = test system: MOLT-4 leukemia
[15] = test system: SW-620 colon
[16] = test system: U251 glioblastoma
[17] = test system: PC-3 prostate
[18] = test system: HOP-62 NSCLC
[19] = test system: UACC-62 melanoma
[20] = test system: NCI/ADR-RES ovarian
[21] = test system: RPMI-8226 leukemia
[22] = test system: SN12C renal
[23] = test system: MDA-MB-231 breast
[24] = test system: CCRF-CEM leukemia
[25] = test system: MDA-MB-468 breast
[26] = test system: UACC-257 melanoma
[27] = test system: HOP-92 NSCLC
[28] = test system: HT29 colon
[29] = test system: 786-0 renal
[30] = test system: SNB-75 CNS
[31] = test system: OVCAR-8 ovarian
[32] = test system: MDA-MB-435 melanoma
[33] = test system: OVCAR-4 ovarian
[34] = test system: HCT-15 colon
[35] = test system: SK-MEL-2 melanoma
[36] = test system: SF-268 CNS
[37] = test system: RXF 393 renal
[38] = test system: BT-549 breast
[39] = test system: HL-60(TB) leukemia
[40] = test system: K-562 leukemia
[41] = test system: MCF7 breast
[42] = test system: SK-MEL-28 melanoma
[43] = test system: IGROV1 ovarian
[44] = test system: M14 melanoma
[45] = test system: EKVX NSCLC
[46] = test system: NCI-H522 lung

CC1=C(/C=C/C(C)=C/C=C/C(C)=C/C(=O)O)C(C)(C)CCC1
GI50 [1]: 45.7 µM
TGI [1]: > 100 µM
GI50 [2]: 20.6 µM
TGI [2]: 39 µM
GI50 [3]: 19.6 µM
TGI [3]: 34.9 µM
GI50 [4]: 86 µM
TGI [4]: > 100 µM
GI50 [5]: 30.1 µM
TGI [5]: > 100 µM
GI50 [6]: 0.95 µM
GI50 [7]: 52.2 µM
TGI [7]: > 100 µM
GI50 [8]: 38 µM
TGI [8]: > 100 µM
GI50 [9]: 16.4 µM
TGI [9]: 40 µM
GI50 [10]: 37.2 µM
TGI [10]: > 100 µM
GI50 [11]: 38.6 µM
TGI [11]: > 100 µM
GI50 [12]: 12 µM
TGI [12]: 24.9 µM
GI50 [13]: 33.2 µM
TGI [13]: > 100 µM
GI50 [14]: 14.6 µM
TGI [14]: 27.9 µM
GI50 [15]: 47.3 µM
TGI [15]: > 100 µM
GI50 [16]: > 100 µM
TGI [16]: > 100 µM
GI50 [17]: 19.8 µM
TGI [17]: 39.7 µM
GI50 [18]: > 100 µM
TGI [18]: > 100 µM
GI50 [19]: 19.2 µM
TGI [19]: 40.2 µM
GI50 [20]: > 100 µM
TGI [20]: > 100 µM
GI50 [21]: 0.293 µM
TGI [21]: 11.3 µM
GI50 [22]: 25.9 µM
TGI [22]: 89.1 µM
GI50 [23]: 25.4 µM
TGI [23]: 72.2 µM
GI50 [24]: 20.1 µM
TGI [24]: 34.5 µM
GI50 [25]: 25.4 µM
TGI [25]: 48.4 µM
GI50 [26]: 33.4 µM
TGI [26]: > 100 µM
GI50 [27]: 38.9 µM
TGI [27]: > 100 µM
GI50 [28]: 21.6 µM
TGI [28]: 46 µM
GI50 [29]: 29.7 µM
TGI [29]: 75.9 µM
GI50 [30]: 31.5 µM
TGI [30]: 79.2 µM
GI50 [31]: 24.1 µM
TGI [31]: 58.3 µM
GI50 [32]: 55.6 µM
TGI [32]: > 100 µM
GI50 [33]: 46 µM
TGI [33]: > 100 µM
GI50 [34]: 22.7 µM
TGI [34]: 52.6 µM
GI50 [35]: 27.7 µM
TGI [35]: 49.7 µM
GI50 [36]: 22.9 µM
TGI [36]: 49.1 µM
GI50 [37]: 24.3 µM
TGI [37]: 57.5 µM
GI50 [38]: 20.3 µM
TGI [38]: 36.5 µM
GI50 [39]: 0.0259 µM
TGI [39]: 16.9 µM
GI50 [40]: 21.5 µM
TGI [40]: 41.3 µM
GI50 [41]: 18 µM
TGI [41]: > 100 µM
GI50 [42]: 47.1 µM
TGI [42]: > 100 µM
GI50 [43]: > 100 µM
TGI [43]: > 100 µM
GI50 [44]: 19.4 µM
TGI [44]: 38 µM
GI50 [45]: > 100 µM
TGI [45]: > 100 µM
GI50 [46]: 24.1 µM
TGI [46]: 51.5 µM
